Results from article PMC6273431, “The Structure–Antimicrobial Activity Relationships of a Promising Class of the Compounds Containing the N-Arylpiperazine Scaffold” (Molecules, 2016).
Like-named read-outs stand apart in the source and are kept apart here.

Legend:
Candida krusei CCM 8271 = assay: candidacidal MIC, microdilution method; type: cell-based; settings: Pichia kudriavzevii, CCM8271, 48 h, 37 °C
Experimental: (§1) In order to provide a look into the potential usefulness of the derivatives 5a–l as the candidates for a development of anti-yeast (candidacidal) agents, they were in vitro tested against Candida albicans CCM 8261 (CA 8261), C. krusei CCM 8271 (CK 8271) and C. parapsilosis CCM 8260 (CP 8260). The yeasts were obtained from the Czech Collection of Microorganisms (Masaryk University, Faculty of Science, Brno, Czech Republic). They were grown and kept on Sabouraud agar (Oxoid Limited, Basingstoke, UK).
(§2) For the screening, the microdilution method according to the Antimicrobial Susceptibility Testing Protocols was applied. The inoculum was prepared from the cultures grown on Sabouraud agar. With the sterile solution of NaCl, the inoculum was prepared to the 0.5 McFarland units using the Densi-La-Meter densitometer (LIAP, Riga, Latvia) and diluted a thousand‑fold with the Roswell Park Memorial Institute (RPMI) 1640 medium (Sigma-Aldrich, Darmstadt, Germany). Prepared suspension was used for an inoculation of microtitre plates. Final concentration in wells ranged from 5.0 × 10^2 CFU/mL to 2.5 × 10^3 CFU/mL. […] For the determination of the MICs, the stock solutions of all the tested compounds were diluted in the microtitre checkerboard to the final concentration varying from 128 μg/mL to 0.125 μg/mL. Drug-free control, sterility control and the control consisted of a medium and DMSO alone were included. Inoculated microtitre plates were incubated for 48 h in the darkness at 37 °C in an aerobic atmosphere. The results were estimated against static light.
(§3) The MIC was defined as the lowest concentration of the tested compound at which no visible growth was observed. To ensure reproducibility of the results, each candidacidal MIC assay was performed triplicate on separate occasions. It was important to note that all the MICs from the in vitro antimicrobial screening were expressed in μg/mL units and were available in Tables S3 and S4 (Supplementary Materials).

[1] = tested on: Candida parapsilosis CCM 8260; assay: candidacidal MIC, microdilution method; type: cell-based; settings: Lodderomyces parapsilosis, CCM8260, 48 h, 37 °C
Experimental: as §1, §2, §3

[2] = tested on: Candida albicans CCM 8261; assay: candidacidal MIC, microdilution method; type: cell-based; settings: Candida albicans, CCM8261, 48 h, 37 °C
Experimental: as §1, §2, §3

[3] = design: method as in PMID 16209439, PMID 16209439; settings: potentiometric titration; cited from earlier work
[4] = tested on: Mycobacterium avium subsp. paratuberculosis CIT03; assay: antimycobacterial MIC, MB broth, alamarBlue; type: cell-based; settings: 264 h, read-out: MIC MAP
Experimental: The Mycobacterium avium subsp. paratuberculosis CIT03 strain was grown in the Middlebrook (MB) broth, supplemented with the Oleic-Albumin-Dextrose-Catalase Supplement (OADC, Becton Dickinson, Oxford, UK) and the mycobactin J (2 μg/mL). The commercially available siderophore mycobactin J reduced the incubation period of M. avium subsp. paratuberculosis in a complex medium when compared to the medium containing the mycobactin P as a growth factor.
The identification of the isolate was performed using biochemical and molecular protocols. At a log phase growth, a culture sample (10 mL) was centrifuged at 15,000 rpm/20 min using a bench top centrifuge (Model CR 4-12, Jouan Inc., London, UK). Following removal of the supernatant, the pellet was washed in fresh Middlebrook 7H9GC broth and re-suspended in fresh supplemented MB broth (10 mL). The turbidity was adjusted to match the McFarland standard No. 1 containing approximately 3.0 × 10^8 Colony Forming Units (CFU) with the MB broth. Further 1:20 dilution of the culture was performed in the MB broth. The susceptibility of given mycobacterial species was investigated in a 96-well plate format. In those experiments, sterile deionised water (300 μL) was added to all outer-perimeter wells of the plates to minimize an evaporation of the medium in the test wells during the incubation process. Each evaluated compound (100 μL) was incubated with the mycobacterial species (100 μL). The dilutions of a particular compound were prepared in triplicate. For all inspected derivatives, final concentrations ranged from 1000 μg/mL to 60 μg/mL. All compounds were prepared in dimethyl sulfoxide (DMSO; Sigma-Aldrich, Irvine, UK) and subsequent dilutions were made in the supplemented MB broth. The plates were sealed with a parafilm and incubated at 37 °C for 11 days. Following the incubation, a 10% addition of a water‑soluble dye, the alamarBlue reagent (AbD Serotec, Kidlington, UK), was mixed into each well. Absorbance readings at 570 nm and 600 nm were taken, initially for background subtraction and after 24 h re-incubation. The subtraction is necessary for strongly coloured compounds, where the colour may interfere with the interpretation of any colour change. For non-interfering compounds, a blue colour in a well was interpreted as an absence of a growth and a pink colour was scored as a growth.
The minimum inhibitory concentration (MIC) was defined as the lowest concentration of the compound at which no visible bacterial growth was observed. In other words, the MIC was the lowest concentration that prevented a visual colour change from blue to pink. The MIC value has been routinely and widely used in bacterial assays and it has been a standard detection limit according to the Clinical and Laboratory Standards Institute. The clinically used antimycobacterial drugs INH and RIF were applied as the standards.

M. smegmatis ATCC 700084 = assay: antimycobacterial MIC, broth dilution micromethod; type: cell-based; settings: Mycolicibacterium smegmatis, ATCC700084, 72 h, 3 days at 37 °C
M. marinum CAMP 5644 = assay: antimycobacterial MIC, broth dilution micromethod; type: cell-based; settings: Mycobacterium marinum, CAMP5644, 504 h, 21 days at 28 °C
M. kansasii DSM 44162 = assay: antimycobacterial MIC, broth dilution micromethod; type: cell-based; settings: Mycobacterium kansasii, DSM44162, 168 h, 7 days at 37 °C
[5] = design: method as in PMID 16209439, PMID 16209439, doi:10.2478/s11696-006-0007-y; settings: octan-1-ol/phosphate buffer (pH = 7.4); cited from earlier work
[6] = tested on: Staphylococcus aureus ATCC 29213; assay: antibacterial MIC, microtitration broth method; type: cell-based; settings: 37 °C
Experimental: (§4) Prior to the testing, each strain was transferred into a nutrient agar (Oxoid Limited, Basingstoke, UK), which was enriched with 5% defibrinated bovine blood.
(§5) The MICs were determined by the microtitration broth method in the cation-adjusted Mueller-Hinton broth (Becton Dickinson, Oxford, UK) according to an international interdisciplinary Clinical Laboratory Standard Institute guidelines.
(§6) The checkerboard was inoculated by the bacterial inocula, which were prepared in a phosphate buffered saline solution with the pH = 7.2–7.3 to simulate physiological pH. The final concentration of each inoculum in the final volume of 100 μL in the wells was approximately 7.5 × 10^6 CFU/mL. Drug-free controls, sterility controls and the controls consisted of the broth with DMSO were included. The determination of the results was performed visually after 24 h of static incubation in the darkness at 37 °C in an aerobic atmosphere.
(§7) To ensure reproducibility, each antibacterial MIC assay was performed triplicate on separate occasions.

[7] = tested on: Enterococcus faecalis ATCC 29212; assay: antibacterial MIC, microtitration broth method; type: cell-based; settings: 37 °C
Experimental: as §4, §5, §6, §7

[8] = tested on: methicillin-resistant Staphylococcus aureus 63718; assay: antibacterial MIC, microtitration broth method; type: cell-based; settings: MRSA, 37 °C
Experimental: as §4, §5, §6, §7

[9] = tested on: Escherichia coli ATCC 25922; assay: antibacterial MIC, microtitration broth method; type: cell-based; settings: 37 °C
Experimental: as §4, §5, §6, §7

Compound | MIC (Candida krusei CCM 8271) [µM] | MIC (Candida krusei CCM 8271; Table S4) [µg/mL] | MIC [1] [µM] | MIC ([1]; Table S4) [µg/mL] | MIC [2] [µM] | MIC ([2]; Table S4) [µg/mL] | pKa [3] | MIC ([4]; 37 °C, 11 days) [µM] | MIC [4] [µg/mL] | MIC (M. smegmatis ATCC 700084) [µM] | MIC (M. smegmatis ATCC 700084; Table S3) [µg/mL] | MIC (M. marinum CAMP 5644) [µM] | MIC (M. marinum CAMP 5644; Table S3) [µg/mL] | MIC (M. kansasii DSM 44162) [µM] | MIC (M. kansasii DSM 44162; Table S3) [µg/mL] | log Pexp [5] | MIC ([6]; ATCC29213, 24 h) [µM] | MIC ([6]; ATCC29213, Table S4, 24 h) [µg/mL] | MIC ([7]; ATCC29212, 24 h) [µM] | MIC ([7]; ATCC29212, Table S4, 24 h) [µg/mL] | further results
CCOc1ccccc1NC(=O)OCC(O)CN1CCN(c2cccc(C(F)(F)F)c2)CC1 (stereo not drawn) [Compound 5b] | > 254 | > 128 | > 254 | > 128 | > 254 | > 128 | 6.00 | 1980 | 1000 | 508 | 256 | 127 | 64 | 127 | 64 | 3.60 | > 508 | > 256 | > 508 | > 256 | MIC ([8]; 24 h): > 508 µM; MIC ([8]; Table S4, 24 h): > 256 µg/mL; MIC ([9]; ATCC25922, 24 h): > 508 µM; MIC ([9]; ATCC25922, Table S4, 24 h): > 256 µg/mL
COc1ccccc1NC(=O)OCC(O)CN1CCN(c2cccc(C(F)(F)F)c2)CC1 (stereo not drawn) [Compound 5a] | > 261 | > 128 | > 261 | > 128 | > 261 | > 128 | 5.83 | 510 | 250 | 523 | 256 | 131 | 64 | 131 | 64 | 3.57 | > 523 | > 256 | > 523 | > 256 | MIC ([8]; 24 h): > 523 µM; MIC ([8]; Table S4, 24 h): > 256 µg/mL; MIC ([9]; ATCC25922, 24 h): > 523 µM; MIC ([9]; ATCC25922, Table S4, 24 h): > 256 µg/mL
COc1cccc(NC(=O)OCC(O)CN2CCN(c3cccc(C(F)(F)F)c3)CC2)c1 (stereo not drawn) [Compound 5c] | > 261 | > 128 | > 261 | > 128 | > 261 | > 128 | 5.73 | 1020 | 500 | 523 | 256 | 131 | 64 | 131 | 64 | 3.61 | > 523 | > 256 | > 523 | > 256 | MIC ([8]; 24 h): > 523 µM; MIC ([8]; Table S4, 24 h): > 256 µg/mL; MIC ([9]; ATCC25922, 24 h): > 523 µM; MIC ([9]; ATCC25922, Table S4, 24 h): > 256 µg/mL
COc1cccc(NC(=O)OCC(O)CN2CCN(c3ccc(F)cc3)CC2)c1 (stereo not drawn) [Compound 5i] | > 291 | > 128 | > 291 | > 128 | > 291 | > 128 | 6.55 | 1140 | 500 | 582 | 256 | 291 | 128 | 145 | 64 | 3.25 | > 582 | > 256 | > 582 | > 256 | MIC ([8]; 24 h): > 582 µM; MIC ([8]; Table S4, 24 h): > 256 µg/mL; MIC ([9]; ATCC25922, 24 h): > 582 µM; MIC ([9]; ATCC25922, Table S4, 24 h): > 256 µg/mL
CCOc1ccccc1NC(=O)OCC(O)CN1CCN(c2ccc(F)cc2)CC1 (stereo not drawn) [Compound 5h] | > 282 | > 128 | > 282 | > 128 | > 282 | > 128 | 6.58 | 1100 | 500 | 564 | 256 | 282 | 128 | 282 | 128 | 3.90 | > 564 | > 256 | > 564 | > 256 | MIC ([8]; 24 h): > 564 µM; MIC ([8]; Table S4, 24 h): > 256 µg/mL; MIC ([9]; ATCC25922, 24 h): > 564 µM; MIC ([9]; ATCC25922, Table S4, 24 h): > 256 µg/mL
CCOc1cccc(NC(=O)OCC(O)CN2CCN(c3ccc(F)cc3)CC2)c1.Cl (stereo not drawn) [Compound 5j, 1-[3-(3-ethoxyphenylcarbamoyl)oxy-2-hydroxypropyl]-4-(4-fluorophenyl)piperazin-1-ium chloride] | > 282 | > 128 | > 282 | > 128 | > 282 | > 128 | 6.31 | 551 | 250 | 282 | 128 | 141 | 64 | 17.6 | 8 | 3.59 | > 564 | > 256 | > 564 | > 256 | MIC ([8]; 24 h): > 564 µM; MIC ([8]; Table S4, 24 h): > 256 µg/mL; MIC ([9]; ATCC25922, 24 h): > 564 µM; MIC ([9]; ATCC25922, Table S4, 24 h): > 256 µg/mL
